Target: T1, Nox4 (Homo sapiens, UniProt Q9NPH5)
T1 sequence (Q9NPH5 1-578): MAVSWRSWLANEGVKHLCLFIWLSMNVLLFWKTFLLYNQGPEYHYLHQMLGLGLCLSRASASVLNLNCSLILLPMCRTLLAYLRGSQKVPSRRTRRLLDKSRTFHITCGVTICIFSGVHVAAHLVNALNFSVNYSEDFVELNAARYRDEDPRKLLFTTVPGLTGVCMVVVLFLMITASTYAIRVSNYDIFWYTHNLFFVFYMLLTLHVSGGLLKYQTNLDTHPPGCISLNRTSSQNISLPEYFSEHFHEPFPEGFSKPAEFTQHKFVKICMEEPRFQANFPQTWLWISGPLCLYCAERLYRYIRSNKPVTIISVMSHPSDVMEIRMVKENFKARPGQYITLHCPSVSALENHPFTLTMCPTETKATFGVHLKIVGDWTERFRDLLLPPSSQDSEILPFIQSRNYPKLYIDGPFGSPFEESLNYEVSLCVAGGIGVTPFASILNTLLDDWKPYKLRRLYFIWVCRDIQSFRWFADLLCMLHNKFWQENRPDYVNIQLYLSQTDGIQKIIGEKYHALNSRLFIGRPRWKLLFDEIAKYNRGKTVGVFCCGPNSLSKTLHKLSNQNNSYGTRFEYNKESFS
Experiment: Amplex Red H2O2 assay in CJ HEK […] cells overexpressing Nox4 (found by screen in T-Rex-293 with inducible Nox4); H2O2 counter-screen and DPPH redox control
Type: cell-based

IC50: 1.25 µM
SMILES: COc1cccc(N2CCN(Cc3nc(N)nc(Nc4ccc(C)c(C)c4)n3)CC2)c1 [GLX481304]
